Row | Compound | melting point [°C]
1 | Clc1ccc2[nH]c(Sc3ccccc3)c(C3=NCCN3)c2c1 | 178
2 | Cc1ccc(C(O)CN2c3nc(-c4ccncc4)cc(=O)n3CCC2c2ccccc2)cc1 (stereo unspecified) | 198 to 200
3 | CCOc1ccc(N)nc1C | 93 to 96
4 | NNC(=C[N+](=O)[O-])NCc1ccc(Cl)nc1 | 188 to 190
5 | O=C(NCCN1CCOCC1)Oc1cccc(C2CCCN2Cc2ccccc2)c1 (stereo unspecified) | 74 to 77
6 | CC=C(c1ccc(OC)cc1)c1ccc(OC)cc1 | 99 to 100
7 | CCCCCCCCCCCCCCOc1ccc2ccc(=O)oc2c1 | 59 to 60
8 | COc1ccc(-c2nnn(-c3c(Cl)cc(Cl)cc3I)c2N)cc1 | 72.5 to 73.6
9 | CN(C)C(=O)ON=C1COCS1 | 87.5 to 88
10 | Cc1cc(-n2c(C)nc3ccccc32)cc2c1NC(=O)CC2C (stereo unspecified) | 248 to 252
11 | COC(=N)Nc1nc(Cl)cc(OC)n1 | 118 to 120
12 | COC1=C(C#N)C(c2ccccc2)=C2C(=O)N(C)C(c3ccccc3)=C12 | 210 to 212
13 | CCCCC1c2ccccc2-c2ccccc2N1S(=O)(=O)c1ccc(OC)cc1 (stereo unspecified) | 127 to 129
14 | CNC(=O)Nc1ccc(CCN2CCC(Nc3nc4ccccc4n3Cc3ccc(F)cc3)CC2)cc1 | 300
15 | O=C(CNC(=S)c1cccnc1)NC1CC1 | 152 to 153
16 | O=C(CN1CCN(C(=O)OCc2ccc(C(F)(F)F)cc2)CC1)N1CCC2(CC1)Cn1cc([N+](=O)[O-])nc1O2 | 139 to 141
17 | CCCCNC(=O)Nc1ccccc1C(=O)NCC1CCN(C(c2ccccc2)c2ccccc2)CC1 | 197 to 198
18 | O=C(Nc1ccc(-n2nc(C(F)(F)F)cc2C(F)(F)F)cc1)c1ccc(CO)cc1 | 213 to 214
19 | ClCCCOc1ccc(-c2nc3ccccc3s2)cc1 | 141 to 143
20 | CC1CC2(C)C(O)CCC2C2C(C)CC3=CC(=O)CCC3C12 (stereo unspecified) | 155 to 157
21 | CC(C)CNn1c(=O)c(Oc2ccc(F)cc2F)cc2cnc(SCc3ccccc3)nc21 | 132 to 134
22 | CCC1N=C(c2ccccc2Cl)c2cc(CC(=O)O)sc2-n2c(C)nnc21 (stereo unspecified) | 170 to 180
23 | CSc1nc(=O)n(C(C)C)c(=O)[nH]1 | 188 to 190
24 | CCOC(=O)c1cc(=O)c2ccc(OS(=O)(=O)c3ccc(C)cc3)c([N+](=O)[O-])c2o1 | 125
25 | O=C(OCCO)c1ccc(C(=O)OCCO)cc1 | 108 to 110

Row | Compound | melting point [°C]
26 | CCC(CC)(CC(=O)Nc1cccc(SCc2ccc3cccc(F)c3n2)c1)C(=O)O | 80 to 83
27 | CC1(C)CCC(C)(C)c2cc(C=O)c(C#C[Si](C)(C)C)cc21 | 78.4 to 82
28 | c1ccc2c(c1)Cn1cccc1-c1nccn1-2 | 202 to 203
29 | CS(=O)(=O)c1snc(OCC#CI)c1C#N | 191 to 192
30 | C#Cc1cccc(Nc2ncnc3cnc(NCc4ccc(OC)cc4)cc23)c1 | 200 to 203
31 | O=C(O)CCOc1cccc(CCNC(=O)C2Cc3ccccc3N2S(=O)(=O)c2ccc(-c3cccc(C(F)(F)F)c3)cc2)c1 (stereo unspecified) | 78
32 | O=C(CCCCCNC(=O)C(c1ccccc1)c1ccccc1)NO | 55 to 56
33 | COc1cc(-c2cc(O)c(SCCc3ccccc3)c(=O)o2)ccc1OCc1ccccc1 | 114 to 115
34 | Cn1cc(CN2C(=O)C3(COc4cc5c(cc43)OCO5)c3ccccc32)ccc1=O (stereo unspecified) | 115 to 118
35 | O=C(O)c1cc(S(=O)(=O)n2ccc3ccccc32)ccc1Br | 189 to 191
36 | CCOC(=O)c1c(NC(C)=O)sc2c1C=CC=CC=CC=CC=C2 | 54 to 74
37 | O=c1cc(-c2ccccc2)c2ccc(COc3cc(F)cc(-c4ccccc4)c3)cc2o1 | 129 to 131
38 | O=S(=O)(NCC1CC1)c1cccc(-c2cc(-c3nc(-c4ccc(C(F)(F)F)cc4)cc(C(F)(F)F)n3)ccn2)c1 | 134
39 | CCNC(=O)c1c(Cl)ccc(Br)c1[Si](C)(C)C | 155 to 157
40 | Cc1cccc(C)c1NNC(=O)c1cccc2c1CC(N(C(=O)C(F)(F)F)C1CC1)CO2 (stereo unspecified) | 146 to 149
41 | CC(C)(C)OC(=O)NCc1cc([N+](=O)[O-])ccc1Cl | 77
42 | CCCCCCCCCCCCCCCc1c([N+](=O)[O-])cc([N+](=O)[O-])c(OC)c1C(=O)O | 68 to 75
43 | COC1CCC2(C)C(CCC3C2CCC2(C)C(C(C)=O)CCC32)C1 (stereo unspecified) | 125 to 126
44 | O=C1CC=Cc2ncncc21 | 211 to 212
45 | O=C(O)c1ccc(C=NS(=O)(=O)c2ccc(Cl)cc2)cc1 | > 245
46 | C=C(C)COc1ccc(F)cc1CN(CC)c1ccc(C(=O)O)nn1 | 121 to 122
47 | Fc1ccc(-c2cc(CNc3cc(C4CC=CS4)n[nH]3)n[nH]2)cc1 (stereo unspecified) | 128 to 130
48 | Cn1c(=O)c2cnccc2n(C)c1=O | 174 to 175
49 | CC(=O)OCC[Si](c1ccccc1)(c1ccccc1)c1ccccc1 | 67 to 68

Results, then the compound that gave them:

Row | melting point [°C] | Compound
50 | 135 to 139 | CC(=O)C(=Cc1ccc(S(C)(=O)=O)c(Br)c1)C(C)=O
51 | 176 to 179 | CS(=O)(=O)c1ccc(-c2cc(-c3ccc(F)cc3)n3c2CCC3)cc1
52 | 200 to 203 | O=c1cccc(-c2ccc(Cl)cc2)[nH]1
53 | 264 | Cc1cc(-c2ccc(C(F)(F)F)cc2)cn2c(-c3nc(-c4ccnc(N)c4)no3)cnc12
54 | 45 to 47 | CCCCC1=Nc2sccc2C(=CN)N1CCC
55 | 152 to 155 | CC(=O)Oc1cc2c(c3ccccc13)Nc1ccccc1O2
56 | 213 to 214 | CC(O)=C(C#N)C(=O)Nc1ccc(Br)cc1
57 | 127 to 128 | CC1(C)CCC(C)(C)c2cc(C(F)C(=O)O)ccc21 (stereo unspecified)
58 | 115 to 116 | O=C1c2cc(Oc3ccc(F)cc3)ccc2CN1Cc1cccnc1
59 | 141 to 143 | O=C1c2ccccc2C(=O)N1CCN(OCc1ccccc1)C(=S)Nc1c(F)cccc1F
60 | 139 to 140 | COCOc1ccccc1-c1cc(-c2cccc(CN=[N+]=[N-])c2)c(C#N)c(NC(=O)c2cccs2)n1
61 | 198 to 205 | Cn1cc2c(nc(NC(=O)Nc3ccc(CC(=O)NCCCNC(=O)OC(C)(C)C)cc3)n3nc(-c4ccco4)nc23)n1
62 | 198 to 200 | CCCC1=C(C(=O)OCC)C(c2cccc(C)c2Cl)c2c[nH]nc2N1 (stereo unspecified)
63 | 178 to 180 | N#CC=C1CCN(c2ccc(N3C[C@H](CNC(=O)CI)OC3=O)cc2F)CC1
64 | 70 to 71 | CSc1ccc(C=CC(N)=NO)s1
65 | 142 to 144 | O=C(Nc1ccc(-n2nc(C(F)(F)F)cc2C(F)(F)F)cc1)c1ccc(F)c(C(F)(F)F)c1
66 | 120 to 127 | CC(=O)N[C@@H]1CC[C@@H](O)c2ccccc21 (relative stereo)
67 | 162 to 164 | COc1cc2c(cc1OC)/C(=C/c1cc(OC)c(OC)c(OC)c1)N(C(=O)C1CCCCC1)CC2
68 | 155 to 157 | CC(C)(Cc1ccc2oc(-c3nc(C(C)(C)C)cs3)cc2c1)C(=O)O
69 | 149 to 153 | Cc1cncn1CC#CCn1ccn(C)c1=O
70 | 68 to 70 | N#Cc1nccnc1Oc1cccc(C(F)(F)F)c1
71 | > 350 | O=c1[nH]c2cc(Cl)ccc2c(O)c1-c1ccc(OCc2ccccc2)cc1
72 | 179 to 181 | CCCc1nc2c(N)nc3ccccc3c2n1CCCCN(OC)C(N)=O
73 | 212 to 214 | CC1(C)Cc2c(sc(N)c2C(N)=O)CO1
74 | 125 to 128 | CC(C#N)NNC(N)=O (stereo unspecified)
75 | 122 | O=C(CC1CCN(C(=O)OCc2ccccc2)CC1)c1c[nH]c2ccccc12

Row | melting point [°C] | Compound
76 | 172 to 175 | O=C(CSc1ccccc1)NNC(=O)N1Cc2ccccc2Oc2ccc(Cl)cc21
77 | 227 | O=C(CCCCC(=O)NC1CCc2ccccc21)NC1CCc2ccccc21 (stereo unspecified)
78 | 214 to 215 | Cc1c(N2C[C@@H](N)[C@@H](C)C2)c(F)c(N)c2c(=O)c(C(=O)O)cn(C3CC3)c12 (relative stereo)
79 | 47 | CSC(=S)NCc1c(Cl)cccc1Cl
80 | 122 | CC(C)(C)OC(=O)N[C@@H](Cc1cc(F)cc(F)c1)[C@H](O)CO
81 | 113 to 115 | COc1cccc2c1CC[C@@H](O)[C@@H]2N1CCCC1 (relative stereo)
82 | 204 to 206 | CC(C)N1C(=O)c2cncnc2Nc2ccccc21
83 | 228 to 230 | COc1cccc(CNC(=O)c2nc3cccc(OCCc4ccc(C(=O)O)cc4)c3c(=O)[nH]2)c1
84 | 232 | Nc1nc(Cl)nc2ccccc12
85 | 176 to 177 | CC1(C)Oc2ccc(S(=O)(=O)C(F)(F)C(F)(F)C(F)(F)F)cc2[C@@H](N)[C@@H]1O (relative stereo)
86 | 145 to 147 | COc1cc(OC)nc(NC(=O)NS(=O)(=O)c2ncccc2C(CF)OC(C)=O)n1 (stereo unspecified)
87 | 227 to 231 | COc1cccc(C(=O)c2[nH]c3cc(Cl)ccc3c2CC(=O)O)c1
88 | 227 | CNc1ccc(/C=C/C(=O)O)cn1
89 | 166 to 168 | CC1(C)CC(N2CCN(c3ccccc3)C2=O)c2cc(C#N)ccc2O1 (stereo unspecified)
90 | 36 to 38 | O=C(CCCCO)c1cccnc1
91 | 133 to 138 | O=C(CCC(O)=NO)c1cccs1
92 | 111 to 113 | Cc1c(Br)ccc(N)c1C#N
93 | 139 to 141 | COc1cccc2c1nc(-c1c(F)cccc1F)n2Cc1ccccc1
94 | 198 to 200 | O=C1/C(=C/C=C/c2ccccc2)CCc2cc(OCCn3ccnc3)ccc21
95 | 262 to 265 | CCN(CC)C(=O)c1c2nc3c(C(=O)N(CC)CC)c(N)c(O)c(C)c3oc-2c(C)c(=O)c1N
96 | 35 to 37 | COC(=O)c1ccc(OC)cc1S
97 | 104 | Cc1ccc(OCCCCOc2ccc(C)cc2)cc1
98 | 186 to 187 | COc1cc(OC)c(/C=C/S(=O)(=O)Cc2ccc(OC)c([N+](=O)[O-])c2)c(OC)c1
99 | 207 to 209 | N#Cc1c(N2CCC[C@@H]2CO)[nH]c2cccnc12
100 | 132 to 134 | COc1cc(OC)nc(NC(=O)NS(=O)(=O)Oc2ccccc2OCCCl)n1
101 | 172 to 173 | CC(=O)CC(=S)SCc1cn(C(c2ccccc2)(c2ccccc2)c2ccccc2)nn1

Source: a melting point compilation (Tetko et al.; mined from patent text by program, amines drawn as free bases though some values may be those of a salt)
